# Test system: test plant species
# Experiment: Post-emergent herbicidal activity test (greenhouse, foliar spray, visual growth reduction)
# Assay type: in vivo
# Conditions: post-emergence, 336 h, ALOMY: blackgrass (Alopecurus myosuroides), 140 g ai/ha, 14 days after application, read-out: Visual Growth Reduction (%) 14 Days After Application, ALOMY
# Outline: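 Visual scoring 14 d after treatment (0 = no injury, 100 = complete control) against nontreated and solvent-blank plants gave percent growth reduction. Foliar application used a track sprayer delivering 187 L/ha to seedlings at first or second true leaf stage, grown at 23–29 °C day, ~15 h photoperiod.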
row,SMILES,pest or weed control at 140 g/ha [%]
1,"COC(=O)c1nc(-c2ccc(SC(F)(F)F)cc2)c(Cl)cc1Cl [F98, Methyl 3,5-dichloro-6-(4-((trifluoromethyl)thio)phenyl)picolinate]",0 to 29
2,"O=C(O)c1nc(-c2ccc(C(F)(F)F)nc2)ccc1Cl [F95, 5-Chloro-6′-(trifluoromethyl)-[2,3′-bipyridine]-6-carboxylic acid]",0 to 29

# Same assay, conditions: post-emergence, 336 h, AMARE: redroot pigweed (Amaranthus retroflexus), 140 g ai/ha, 14 days after application, read-out: Visual Growth Reduction (%) 14 Days After Application, AMARE
row,SMILES,pest or weed control at 140 g/ha [%]
1,"COC(=O)c1nc(-c2ccc(SC(F)(F)F)cc2)c(Cl)cc1Cl [F98, Methyl 3,5-dichloro-6-(4-((trifluoromethyl)thio)phenyl)picolinate]",0 to 29
2,"O=C(O)c1nc(-c2ccc(C(F)(F)F)nc2)ccc1Cl [F95, 5-Chloro-6′-(trifluoromethyl)-[2,3′-bipyridine]-6-carboxylic acid]",0 to 29

# Same assay, conditions: post-emergence, 336 h, AVEFA: wild oat (Avena fatua), 140 g ai/ha, 14 days after application, read-out: Visual Growth Reduction (%) 14 Days After Application, AVEFA
row,SMILES,pest or weed control at 140 g/ha [%]
1,"COC(=O)c1nc(-c2ccc(SC(F)(F)F)cc2)c(Cl)cc1Cl [F98, Methyl 3,5-dichloro-6-(4-((trifluoromethyl)thio)phenyl)picolinate]",0 to 29
2,"O=C(O)c1nc(-c2ccc(C(F)(F)F)nc2)ccc1Cl [F95, 5-Chloro-6′-(trifluoromethyl)-[2,3′-bipyridine]-6-carboxylic acid]",0 to 29

# Same assay, conditions: post-emergence, 336 h, CHEAL: lambsquarters (Chenopodium album), 140 g ai/ha, 14 days after application, read-out: Visual Growth Reduction (%) 14 Days After Application, CHEAL
row,SMILES,pest or weed control at 140 g/ha [%]
1,"COC(=O)c1nc(-c2ccc(SC(F)(F)F)cc2)c(Cl)cc1Cl [F98, Methyl 3,5-dichloro-6-(4-((trifluoromethyl)thio)phenyl)picolinate]",0 to 29
2,"O=C(O)c1nc(-c2ccc(C(F)(F)F)nc2)ccc1Cl [F95, 5-Chloro-6′-(trifluoromethyl)-[2,3′-bipyridine]-6-carboxylic acid]",0 to 29

# Same assay, conditions: post-emergence, 336 h, CIRAR: canada thistle (Cirsium arvense), 140 g ai/ha, 14 days after application, read-out: Visual Growth Reduction (%) 14 Days After Application, CIRAR
row,SMILES,pest or weed control at 140 g/ha [%]
1,"COC(=O)c1nc(-c2ccc(SC(F)(F)F)cc2)c(Cl)cc1Cl [F98, Methyl 3,5-dichloro-6-(4-((trifluoromethyl)thio)phenyl)picolinate]",0 to 29
2,"O=C(O)c1nc(-c2ccc(C(F)(F)F)nc2)ccc1Cl [F95, 5-Chloro-6′-(trifluoromethyl)-[2,3′-bipyridine]-6-carboxylic acid]",0 to 29

# Same assay, conditions: post-emergence, 336 h, CYPES: yellow nutsedge (Cyperus esculentus), 140 g ai/ha, 14 days after application, read-out: Visual Growth Reduction (%) 14 Days After Application, CYPES
row,SMILES,pest or weed control at 140 g/ha [%]
1,"COC(=O)c1nc(-c2ccc(SC(F)(F)F)cc2)c(Cl)cc1Cl [F98, Methyl 3,5-dichloro-6-(4-((trifluoromethyl)thio)phenyl)picolinate]",0 to 29
2,"O=C(O)c1nc(-c2ccc(C(F)(F)F)nc2)ccc1Cl [F95, 5-Chloro-6′-(trifluoromethyl)-[2,3′-bipyridine]-6-carboxylic acid]",0 to 29

# Same assay, conditions: post-emergence, 336 h, DIGSA: crabgrass (Digitaria sanguinalis), 140 g ai/ha, 14 days after application, read-out: Visual Growth Reduction (%) 14 Days After Application, DIGSA
row,SMILES,pest or weed control at 140 g/ha [%]
1,"COC(=O)c1nc(-c2ccc(SC(F)(F)F)cc2)c(Cl)cc1Cl [F98, Methyl 3,5-dichloro-6-(4-((trifluoromethyl)thio)phenyl)picolinate]",0 to 29
2,"O=C(O)c1nc(-c2ccc(C(F)(F)F)nc2)ccc1Cl [F95, 5-Chloro-6′-(trifluoromethyl)-[2,3′-bipyridine]-6-carboxylic acid]",0 to 29

# Same assay, conditions: post-emergence, 336 h, ECHCG: barnyardgrass (Echinochloa crus-galli), 140 g ai/ha, 14 days after application, read-out: Visual Growth Reduction (%) 14 Days After Application, ECHCG
row,SMILES,pest or weed control at 140 g/ha [%]
1,"COC(=O)c1nc(-c2ccc(SC(F)(F)F)cc2)c(Cl)cc1Cl [F98, Methyl 3,5-dichloro-6-(4-((trifluoromethyl)thio)phenyl)picolinate]",0 to 29
2,"O=C(O)c1nc(-c2ccc(C(F)(F)F)nc2)ccc1Cl [F95, 5-Chloro-6′-(trifluoromethyl)-[2,3′-bipyridine]-6-carboxylic acid]",0 to 29

# Same assay, conditions: post-emergence, 336 h, IPOHE: ivy-leaf morning glory (Ipomoea hederacea), 140 g ai/ha, 14 days after application, read-out: Visual Growth Reduction (%) 14 Days After Application, IPOHE
row,SMILES,pest or weed control at 140 g/ha [%]
1,"COC(=O)c1nc(-c2ccc(SC(F)(F)F)cc2)c(Cl)cc1Cl [F98, Methyl 3,5-dichloro-6-(4-((trifluoromethyl)thio)phenyl)picolinate]",0 to 29
2,"O=C(O)c1nc(-c2ccc(C(F)(F)F)nc2)ccc1Cl [F95, 5-Chloro-6′-(trifluoromethyl)-[2,3′-bipyridine]-6-carboxylic acid]",45 to 59

# Same assay, conditions: post-emergence, 336 h, KCHSC: kochia (Bassia scoparia), 140 g ai/ha, 14 days after application, read-out: Visual Growth Reduction (%) 14 Days After Application, KCHSC
row,SMILES,pest or weed control at 140 g/ha [%]
1,"COC(=O)c1nc(-c2ccc(SC(F)(F)F)cc2)c(Cl)cc1Cl [F98, Methyl 3,5-dichloro-6-(4-((trifluoromethyl)thio)phenyl)picolinate]",0 to 29
2,"O=C(O)c1nc(-c2ccc(C(F)(F)F)nc2)ccc1Cl [F95, 5-Chloro-6′-(trifluoromethyl)-[2,3′-bipyridine]-6-carboxylic acid]",0 to 29

# Same assay, conditions: post-emergence, 336 h, ORYSA: rice (Oryza sativa), 140 g ai/ha, 14 days after application, read-out: Visual Growth Reduction (%) 14 Days After Application, ORYSA
row,SMILES,pest or weed control at 140 g/ha [%]
1,"COC(=O)c1nc(-c2ccc(SC(F)(F)F)cc2)c(Cl)cc1Cl [F98, Methyl 3,5-dichloro-6-(4-((trifluoromethyl)thio)phenyl)picolinate]",0 to 29
2,"O=C(O)c1nc(-c2ccc(C(F)(F)F)nc2)ccc1Cl [F95, 5-Chloro-6′-(trifluoromethyl)-[2,3′-bipyridine]-6-carboxylic acid]",0 to 29

# Same assay, conditions: post-emergence, 336 h, SETFA: giant foxtail (Setaria faberi), 140 g ai/ha, 14 days after application, read-out: Visual Growth Reduction (%) 14 Days After Application, SETFA
row,SMILES,pest or weed control at 140 g/ha [%]
1,"COC(=O)c1nc(-c2ccc(SC(F)(F)F)cc2)c(Cl)cc1Cl [F98, Methyl 3,5-dichloro-6-(4-((trifluoromethyl)thio)phenyl)picolinate]",0 to 29
2,"O=C(O)c1nc(-c2ccc(C(F)(F)F)nc2)ccc1Cl [F95, 5-Chloro-6′-(trifluoromethyl)-[2,3′-bipyridine]-6-carboxylic acid]",0 to 29

# Same assay, conditions: post-emergence, 336 h, SORVU: grain sorghum (Sorghum vulgare), 140 g ai/ha, 14 days after application, read-out: Visual Growth Reduction (%) 14 Days After Application, SORVU
row,SMILES,pest or weed control at 140 g/ha [%]
1,"COC(=O)c1nc(-c2ccc(SC(F)(F)F)cc2)c(Cl)cc1Cl [F98, Methyl 3,5-dichloro-6-(4-((trifluoromethyl)thio)phenyl)picolinate]",0 to 29
2,"O=C(O)c1nc(-c2ccc(C(F)(F)F)nc2)ccc1Cl [F95, 5-Chloro-6′-(trifluoromethyl)-[2,3′-bipyridine]-6-carboxylic acid]",0 to 29

# Same assay, conditions: post-emergence, 336 h, STEME: common chickweed (Stellaria media), 140 g ai/ha, 14 days after application, read-out: Visual Growth Reduction (%) 14 Days After Application, STEME
row,SMILES,pest or weed control at 140 g/ha [%]
1,"COC(=O)c1nc(-c2ccc(SC(F)(F)F)cc2)c(Cl)cc1Cl [F98, Methyl 3,5-dichloro-6-(4-((trifluoromethyl)thio)phenyl)picolinate]",0 to 29
2,"O=C(O)c1nc(-c2ccc(C(F)(F)F)nc2)ccc1Cl [F95, 5-Chloro-6′-(trifluoromethyl)-[2,3′-bipyridine]-6-carboxylic acid]",0 to 29

# Same assay, conditions: post-emergence, 336 h, TRZAS: wheat, spring (Triticum aestivum), 140 g ai/ha, 14 days after application, read-out: Visual Growth Reduction (%) 14 Days After Application, TRZAS
row,SMILES,pest or weed control at 140 g/ha [%]
1,"COC(=O)c1nc(-c2ccc(SC(F)(F)F)cc2)c(Cl)cc1Cl [F98, Methyl 3,5-dichloro-6-(4-((trifluoromethyl)thio)phenyl)picolinate]",0 to 29
2,"O=C(O)c1nc(-c2ccc(C(F)(F)F)nc2)ccc1Cl [F95, 5-Chloro-6′-(trifluoromethyl)-[2,3′-bipyridine]-6-carboxylic acid]",0 to 29
